From publication PMC4639751, “Development of 1-N-^11C-Methyl-L- and -D-Tryptophan for pharmacokinetic imaging of the immune checkpoint inhibitor 1-Methyl-Tryptophan” (Scientific Reports, 2015)

Tests used:
[1] = In vitro stability assay in rat plasma; assay type: in vitro ADME; settings: 37 °C, 90 min incubation, HPLC analysis
Description: To determine the in vitro property of the two newly-developed radioprobes, we performed plasma stability studies by HPLC analysis at 37 °C for 90 min. […] More than 95% of ^11C-L-1Mtrp and ^11C-D-1Mtrp remained intact and no detectable metabolites were found at least 90 min after plasma incubation in vitro.
^11C-L-1MTrp and ^11C-D-1MTrp (70–74 MBq, 0.4−0.6 nmol) was dissolved in 2 mL of freshly isolated rat plasma and incubated at 37 °C for 90 min. After 0, 30, 60 and 90 min, an aliquot of 300 μL incubated mixture was taken, proteins in plasma were precipitated with equal volumes of 1 M HClO4 solution, followed by centrifugation at 15000 rpm for 2 min at 4 °C. The supernatant was collected and analyzed by HPLC (Capcell Pack UG80 column, 4.6 mm i.d. × 250 mm) with […] phosphate buffer/CH3CN (8.5/1.5, v/v) at a flow rate of 1 mL/min.

[2] = PET, rats
Description: Emission scans were acquired in three-dimensional list mode with an energy window of 350–650 keV under isoflurane anesthesia, from 0 to 60 min after radioprobe administration. All list-mode acquisition data were sorted into three-dimensional sinograms, which were then Fourier-rebinned into two-dimensional sonograms (frames × min: 4 × 1, 8 × 2, 8 × 5), and corrections for scanner dead time, randoms, and decay of the injected radioprobe. Dynamic images were reconstructed with filtered back-projection using a Hanning filter and a Nyquist cut-off of 0.5 cycles/pixel. Immediately after completion of PET scans, contrast-enhanced CT scans were performed in the rats by using the small-animal CT system (R_mCT2; Rigaku, Tokyo) after injection of 1 mL of non-ionic contrast medium (Iopamiron 370, Bayer, Osaka). The scan conditions included radiation parameters of 200 μA and 90 kV, FOV of 60 mm, and acquisition time of 34 s. CT images were collected, reconstructed, and observed using I-View-R software (Rigaku, The Woodlands, TX). Averaged CT attenuation images and dynamic PET images were reconstructed and fused using the Siemens Inveon Research Workplace (IRW) 4.0 software.
Regions of interest (ROI) in major organs and tissues were drawn in the PET/CT fusion images by manual outlining the organs and tissues in the CT images throughout the image slices by using IRW 4.0 software. The average radioactivity concentration was obtained from mean pixel values in the ROI volume. Regional uptake of radioactivity was decay-corrected to the injection time and expressed as the standardized uptake value (SUV), normalized for injected radioactivity and body weight. SUV was calculated as SUV = (radioactivity per cubic centimeter tissue/injected radioactivity) × body weight in grams. TACs of the radioprobes in individual organ and tissue were determined. Values of area under time-activity curves (AUC2–60 min, SUV × min) were calculated from 2 to 60 min post-injection to minimize the early perfusion effects.

[3] = Ex vivo biodistribution studies; settings: SD rats; for Biodistribution, radioactivity in Blood / Biodistribution, radioactivity in Brain / Biodistribution, radioactivity in Heart / Biodistribution, radioactivity in Intestine / Biodistribution, radioactivity in Liver / Biodistribution, radioactivity in Lung / Biodistribution, radioactivity in Muscle / Biodistribution, radioactivity in Pancreas / Biodistribution, radioactivity in Spleen / Biodistribution, radioactivity in Kidney: mean ± SEM, n = 4
Description: Major organs and tissues (blood, heart, lung, liver, pancreas, spleen, kidney, intestine, muscle, and brain), were promptly excised, harvested, and weighed. Radioactivity was counted using a γ-counter and expressed as a percentage of the injected dose per gram of wet tissue (%ID/g). All radioactivity measurements were corrected for decay.

[4] = Ex vivo metabolite studies; assay type: in vivo; settings: SD rats; for Ex vivo metabolite analysis, % of tailored L- and D-1MTrp entity in Brain / Ex vivo metabolite analysis, % of tailored L- and D-1MTrp entity in Pancreas / Ex vivo metabolite analysis, % of tailored L- and D-1MTrp entity in Plasma: HPLC, mean ± SEM, n = 4
Description: To validate the derivation of radioactivity into the relevant organs and tissues, we assessed the metabolites of both radiolabelled isomers in the blood, brain, and pancreas of rats. […] Few radioactive metabolites were detected in these three tissues at 15 and 60 min after ^11C-L-1MTrp and ^11C-D-1MTrp injection.
SD rats were injected with ^11C-L-1MTrp or ^11C-D-1MTrp (70–74 MBq, 0.4–0.6 nmol) via a lateral tail vein. The animals were sacrificed by cervical dislocation at 15 and 60 min after the injection. Blood was collected and centrifuged at 15000 rpm for 2 min at 4 °C to separate the plasma. Brain and pancreas were rapidly removed, then homogenized in equal volumes of 1 M HClO4 solution with a Silent Crusher S homogenizer (Heidolph Instruments). Plasma and homogenates of brain and pancreas from rats were deproteinized and then analyzed by HPLC as described in the stability assay in vitro.

SMILES: [11CH3]n1cc(C[C@@H](N)C(=O)O)c2ccccc21 [^11C-D-1MTrp, 1-N-^11C-methyl-D-tryptophan]
- Fraction remaining intact in rat plasma [1]: More than 95%
- SUV in the kidney ([2]; 60 min after injection, mean ± SEM, four rats): 1.79 ± 0.07
- SUV in the other organs (other than kidneys) ([2]; 60 min after injection, span over organs): 0.20−0.61
- Maximum accumulation (SUV) in the kidneys ([2]; within 5 min after administration): 6.03 ± 0.43
- Biodistribution, radioactivity in Blood ([3]; 1 min after injection): 1.47 ± 0.02 %ID/g tissue
- Biodistribution, radioactivity in Brain ([3]; 1 min after injection): 0.04 ± 0.00 %ID/g tissue
- Biodistribution, radioactivity in Heart ([3]; 1 min after injection): 0.58 ± 0.02 %ID/g tissue
- Biodistribution, radioactivity in Intestine ([3]; 1 min after injection): 0.93 ± 0.02 %ID/g tissue
- Biodistribution, radioactivity in Liver ([3]; 1 min after injection): 1.24 ± 0.03 %ID/g tissue
- Biodistribution, radioactivity in Lung ([3]; 1 min after injection): 0.79 ± 0.03 %ID/g tissue
- Biodistribution, radioactivity in Muscle ([3]; 1 min after injection): 0.12 ± 0.00 %ID/g tissue
- Biodistribution, radioactivity in Pancreas ([3]; 1 min after injection): 0.76 ± 0.07 %ID/g tissue
- Biodistribution, radioactivity in Spleen ([3]; 1 min after injection): 0.62 ± 0.02 %ID/g tissue
- Biodistribution, radioactivity in Blood ([3]; 5 min after injection): 0.79 ± 0.03 %ID/g tissue
- Biodistribution, radioactivity in Brain ([3]; 5 min after injection): 0.05 ± 0.01 %ID/g tissue
- Biodistribution, radioactivity in Heart ([3]; 5 min after injection): 0.55 ± 0.02 %ID/g tissue
- Biodistribution, radioactivity in Intestine ([3]; 5 min after injection): 0.68 ± 0.02 %ID/g tissue
- Biodistribution, radioactivity in Liver ([3]; 5 min after injection): 0.97 ± 0.02 %ID/g tissue
- Biodistribution, radioactivity in Lung ([3]; 5 min after injection): 0.60 ± 0.02 %ID/g tissue
- Biodistribution, radioactivity in Muscle ([3]; 5 min after injection): 0.26 ± 0.01 %ID/g tissue
- Biodistribution, radioactivity in Pancreas ([3]; 5 min after injection): 1.03 ± 0.15 %ID/g tissue
- Biodistribution, radioactivity in Spleen ([3]; 5 min after injection): 0.51 ± 0.02 %ID/g tissue
- Biodistribution, radioactivity in Blood ([3]; 15 min after injection): 0.49 ± 0.01 %ID/g tissue
- Biodistribution, radioactivity in Brain ([3]; 15 min after injection): 0.08 ± 0.00 %ID/g tissue
- Biodistribution, radioactivity in Heart ([3]; 15 min after injection): 0.52 ± 0.02 %ID/g tissue
- Biodistribution, radioactivity in Intestine ([3]; 15 min after injection): 0.53 ± 0.00 %ID/g tissue
- Biodistribution, radioactivity in Kidney ([3]; 15 min after injection): 3.66 ± 0.15 %ID/g tissue
- Biodistribution, radioactivity in Liver ([3]; 15 min after injection): 0.64 ± 0.01 %ID/g tissue
- Biodistribution, radioactivity in Lung ([3]; 15 min after injection): 0.46 ± 0.02 %ID/g tissue
- Biodistribution, radioactivity in Muscle ([3]; 15 min after injection): 0.35 ± 0.01 %ID/g tissue
- Biodistribution, radioactivity in Pancreas ([3]; 15 min after injection): 1.01 ± 0.06 %ID/g tissue
- Biodistribution, radioactivity in Spleen ([3]; 15 min after injection): 0.48 ± 0.01 %ID/g tissue
- Biodistribution, radioactivity in Blood ([3]; 30 min after injection): 0.40 ± 0.01 %ID/g tissue
- Biodistribution, radioactivity in Brain ([3]; 30 min after injection): 0.11 ± 0.00 %ID/g tissue
- Biodistribution, radioactivity in Heart ([3]; 30 min after injection): 0.42 ± 0.02 %ID/g tissue
- Biodistribution, radioactivity in Intestine ([3]; 30 min after injection): 0.40 ± 0.01 %ID/g tissue
- Biodistribution, radioactivity in Kidney ([3]; 30 min after injection): 2.12 ± 0.16 %ID/g tissue
- Biodistribution, radioactivity in Liver ([3]; 30 min after injection): 0.47 ± 0.01 %ID/g tissue
- Biodistribution, radioactivity in Lung ([3]; 30 min after injection): 0.37 ± 0.01 %ID/g tissue
- Biodistribution, radioactivity in Muscle ([3]; 30 min after injection): 0.38 ± 0.03 %ID/g tissue
- Biodistribution, radioactivity in Pancreas ([3]; 30 min after injection): 1.21 ± 0.05 %ID/g tissue
- Biodistribution, radioactivity in Spleen ([3]; 30 min after injection): 0.40 ± 0.02 %ID/g tissue
- Biodistribution, radioactivity in Blood ([3]; 60 min after injection): 0.32 ± 0.01 %ID/g tissue
- Biodistribution, radioactivity in Brain ([3]; 60 min after injection): 0.15 ± 0.01 %ID/g tissue
- Biodistribution, radioactivity in Heart ([3]; 60 min after injection): 0.30 ± 0.01 %ID/g tissue
- Biodistribution, radioactivity in Intestine ([3]; 60 min after injection): 0.32 ± 0.01 %ID/g tissue
- Biodistribution, radioactivity in Kidney ([3]; 60 min after injection): 1.16 ± 0.03 %ID/g tissue
- Biodistribution, radioactivity in Liver ([3]; 60 min after injection): 0.37 ± 0.01 %ID/g tissue
- Biodistribution, radioactivity in Lung ([3]; 60 min after injection): 0.28 ± 0.01 %ID/g tissue
- Biodistribution, radioactivity in Muscle ([3]; 60 min after injection): 0.33 ± 0.01 %ID/g tissue
- Biodistribution, radioactivity in Pancreas ([3]; 60 min after injection): 1.03 ± 0.06 %ID/g tissue
- Biodistribution, radioactivity in Spleen ([3]; 60 min after injection): 0.32 ± 0.01 %ID/g tissue
- Measured uptake in organs other than kidneys and pancreas ([3]; 60 min after radioprobe injection, span over organs): 0.15−0.37 % ID/g
- Radioactivity in the brain, pancreas, and blood associated with L- and D-1MTrp ([4]; 15 and 60 min after injection): more than 94%
- Ex vivo metabolite analysis, % of tailored L- and D-1MTrp entity in Brain ([4]; 15 min after injection): 95.06 ± 0.38%
- Ex vivo metabolite analysis, % of tailored L- and D-1MTrp entity in Pancreas ([4]; 15 min after injection): 94.08 ± 0.51%
- Ex vivo metabolite analysis, % of tailored L- and D-1MTrp entity in Plasma ([4]; 15 min after injection): 94.45 ± 0.03%
- Ex vivo metabolite analysis, % of tailored L- and D-1MTrp entity in Brain ([4]; 60 min after injection): 98.16 ± 0.47%
- Ex vivo metabolite analysis, % of tailored L- and D-1MTrp entity in Pancreas ([4]; 60 min after injection): 96.31 ± 0.48%
- Ex vivo metabolite analysis, % of tailored L- and D-1MTrp entity in Plasma ([4]; 60 min after injection): 98.81 ± 0.25%
